The nature of data set [1]: Concentration of compounds in plasma and brain following oral dosing. The data set is classed as in vivo, Sprague-Dawley rats. The following applies: male rats, 10 mg/kg orally by gavage. The procedure:
2. Determination of the Concentration of Compounds in Plasma and Brain Following Dosing of Compounds in Animals
Male Sprague-Dawley rats were used in this study (2 to 4 per experiment). The animals were fasted overnight prior to dosing and throughout the duration of the study but were permitted water ad libitum.
Each rat received a 10 mg/kg (5 mL/kg) dose orally by gavage. At 0.5, 3 and 8 hours after drug administration, three animals were put under deep anesthesia using isoflurane and euthanized by bleeding (cardiac puncture) under deep isoflurane anesthesia. EDTA blood samples and brain tissue will be collected from each rat. Upon collection, the samples were promptly placed in an ice bath, and within 2 hours after sample collection, the blood was centrifuged at about 4° C. The resulting brain and plasma samples were placed in clean glass tubes and stored in a freezer until analysis.
The plasma samples were assayed for parent compound using appropriate liquid chromatography—mass spectrometry procedures. The results for compounds I are given in tables 2, and illustrate the high brain concentrations attainable with the compounds of the invention.

Data set [2] concerns the target T1, human dopamine D2L receptors (long isoform) (Homo sapiens, UniProt P14416).
T1 construct: expressed in transfected cells; membranes)
Put plainly: Dopamine D2L receptor binding ([125I] iodospiperone), basis of selectivity Ki(D2)/Ki(D3). To be noted: for Selectivity [Ki(D2)/Ki(D3)]: Table 5, D2L vs D3; for D2/D3: Table 7, compounds of formula IIa. Here is the method:
The substance to be tested was either dissolved in methanol/Chremophor® (BASF-AG) or in dimethyl sulfoxide and then diluted with water to the desired concentration. […] Each assay mixture was run in triplicate. The incubation buffer contained 50 mM tris, 120 mM NaCl, 5 mM KCl, 2 mM CaCl2, 2 mM MgCl2 and 0.1% bovine serum albumin. The buffer was adjusted to pH 7.4 with HCl. Measurement and Analysis: After having been incubated at 25° C. for 60 minutes, the assay mixtures were filtered through a Wathman GF/B glass fiber filter under vacuum using a cell collecting device. The filters were transferred to scintillation viols using a filter transfer system. After 4 ml of Ultima Gold® (Packard) have been added, the samples were shaken for one hour and the radioactivity was then counted in a Beta-Counter (Packard, Tricarb 2000 or 2200CA). The cpm values were converted into dpm using a standard quench series and the program belonging to the instrument. The inhibition curves were analyzed by means of iterative nonlinear regression analysis using the Statistical Analysis System (SAS) which is similar to the “LIGAND” program described by Munson and Rodbard.

The target in data set [3] is T2, human dopamine D3 receptors (Homo sapiens, UniProt P35462).
T2 construct: expressed in transfected cells; membranes)
Put plainly: Dopamine D3 receptor binding ([125I]-iodosulpride displacement). The procedure: The substance to be tested was either dissolved in methanol/Chremophor® (BASF-AG) or in dimethyl sulfoxide and then diluted with water to the desired concentration.
Each assay mixture was run in triplicate.
The incubation buffer contained 50 mM tris, 120 mM NaCl, 5 mM KCl, 2 mM CaCl2, 2 mM MgCl2 and 0.1% bovine serum albumin, 10 μM quinolone and 0.1% ascorbic acid (prepared fresh daily). The buffer was adjusted to pH 7.4 with HCl.
Measurement and Analysis:
After having been incubated at 25° C. for 60 minutes, the assay mixtures were filtered through a Wathman GF/B glass fiber filter under vacuum using a cell collecting device. The filters were transferred to scintillation viols using a filter transfer system. After 4 ml of Ultima Gold® (Packard) have been added, the samples were shaken for one hour and the radioactivity was then counted in a Beta-Counter (Packard, Tricarb 2000 or 2200CA). The cpm values were converted into dpm using a standard quench series and the program belonging to the instrument.
The inhibition curves were analyzed by means of iterative nonlinear regression analysis using the Statistical Analysis System (SAS) which is similar to the “LIGAND” program described by Munson and Rodbard.

Setting [4] is: Table 5, membranes of HEK-293 cells, read-out: Ki D3.
The mark [5] stands for this setting: Table 7, compounds of formula IIa, read-out: D3.
The mark [6] stands for this setting: compounds II, read-out: Ki D3 values.

We go through six compounds from patent US8101754B2, “Triazole compounds suitable for treating disorders that respond to modulation of the dopamine D3 receptor” (Abbott GmbH & Co. KG, priority 2004, dated 2012).

Read-outs that look alike come from different tables or passages of the source. Where only a bound is given, the exact number is not on record here.

As a reminder, the melting point is the temperature, or range, at which the solid turns liquid.

T2 sequence (P35462 whole entry): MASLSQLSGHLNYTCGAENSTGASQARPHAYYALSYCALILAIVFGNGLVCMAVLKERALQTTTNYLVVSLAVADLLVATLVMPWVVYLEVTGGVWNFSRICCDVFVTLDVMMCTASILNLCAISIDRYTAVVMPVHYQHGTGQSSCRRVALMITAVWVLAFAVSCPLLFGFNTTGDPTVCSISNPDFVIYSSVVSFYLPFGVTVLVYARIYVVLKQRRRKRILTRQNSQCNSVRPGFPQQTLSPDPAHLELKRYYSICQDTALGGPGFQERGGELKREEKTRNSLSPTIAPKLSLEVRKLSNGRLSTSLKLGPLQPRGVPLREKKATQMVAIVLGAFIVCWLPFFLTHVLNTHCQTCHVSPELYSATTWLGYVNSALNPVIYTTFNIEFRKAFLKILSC
T1 sequence (P14416 whole entry, canonical isoform): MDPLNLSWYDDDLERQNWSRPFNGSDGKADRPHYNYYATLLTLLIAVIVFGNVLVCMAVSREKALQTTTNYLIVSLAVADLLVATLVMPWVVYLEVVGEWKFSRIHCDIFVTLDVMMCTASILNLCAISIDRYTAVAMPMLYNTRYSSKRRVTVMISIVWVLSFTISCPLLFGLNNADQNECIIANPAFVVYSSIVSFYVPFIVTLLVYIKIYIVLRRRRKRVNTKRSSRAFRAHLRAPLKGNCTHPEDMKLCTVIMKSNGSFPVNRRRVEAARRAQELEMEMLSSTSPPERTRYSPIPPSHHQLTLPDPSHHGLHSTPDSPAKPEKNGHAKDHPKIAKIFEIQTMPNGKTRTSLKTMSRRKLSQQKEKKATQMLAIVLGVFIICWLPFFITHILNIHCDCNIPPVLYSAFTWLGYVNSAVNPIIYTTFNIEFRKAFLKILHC

For `Cl.Cn1cnnc1SCCCN1CCN(c2cc(C(F)(F)F)nc(C(C)(C)C)n2)CC1`, the melting point lay in the range of 92 to 95 °C.
As to `Cc1nnc(S(=O)(=O)CCCN2CCN(c3cc(C(C)(C)C)nc(C(C)(C)C)n3)CC2)n1C` [Example 4, 2,4-Di-tert-butyl-6-{4-[3-(4,5-dimethyl-4H-[1,2,4]triazole-3-sulfonyl)-propyl]-piperazin-1-yl}-pyrimidine], the Brain level in data set [1] (Table 5) stood at 1920 ng/g. For the same compound, in data set [2], the “Selectivity [Ki(D2)/Ki(D3)]” value came out at 34. In addition, the Ki in data set [3] (setting [4]) was 6.1 nM.
Compound `Cl.Cn1c(SCCCN2CCN(c3cc(C(F)(F)F)nc(C(C)(C)C)n3)CC2)nnc1C1CC1` [c.17, 2-tert-Butyl-4-{4-[3-(4-methyl-5-cyclopropyl-4H-[1,2,4]triazol-3-ylsulfanyl)-propyl]-piperazin-1-yl}-6-trifluoromethyl-pyrimidine hydrochloride] returned a melting point of 182 to 184 °C. For the same compound, the D2/D3 in data set [2] amounted to 293. In addition, the Ki in data set [3] (setting [5]) worked out at 0.9 nM. The Ki in data set [3] (setting [6]) is less than 5 nM.
In data set [1] (Table 7), `CCCc1cc(N2CCN(CCCSc3nnc(CC)n3C)CC2)nc(C(C)(C)C)n1.Cl` [c.11, 2-tert-Butyl-4-{4-[3-(4-methyl-5-ethyl-4H-[1,2,4]triazol-3-ylsulfanyl)-propyl]-piperazin-1-yl}-6-propyl-pyrimidine hydrochloride] returned a Brain level of 840 ng/g. Moreover, the D2/D3 in data set [2] was 470. The Ki in data set [3] (setting [5]) stood at 1.7 nM.
As for `CCCc1cc(N2CCN(CCCSc3nnc(COC)n3C)CC2)nc(C(C)(C)C)n1.Cl` [c.12, 2-tert-Butyl-4-{4-[3-(4-methyl-5-methoxymethyl-4H-[1,2,4]triazol-3-ylsulfanyl)-propyl]-piperazin-1-yl}-6-propyl-pyrimidine hydrochloride], the Brain level in data set [1] (Table 7) is 780 ng/g. The compound also yielded a D2/D3 in data set [2] of 143. The values for the Ki in data set [3] (setting [5]) and in data set [3] (setting [6]) were 2.4 nM and less than 5 nM, respectively.
In data set [1] (Table 5), `Cc1nnc([S+]([O-])CCCN2CCN(c3cc(C(C)(C)C)nc(C(C)(C)C)n3)CC2)n1C` (racemic) [Example 1, 2,4-Di-tert-butyl-6-{4-[3-(4,5-dimethyl-4H-[1,2,4]triazole-3-sulfinyl)-propyl]-piperazin-1-yl}-pyrimidine] showed a Brain level of 1670 ng/g. In addition, the “Selectivity [Ki(D2)/Ki(D3)]” value in data set [2] came to 26. Further, the Ki in data set [3] (setting [4]) stood at 19.5 nM.
